Patent publication US20250049938A1, “ANTIBODY-DRUG CONJUGATE AND USE THEREOF” (priority 2021, published 2025)
Starred links: 1 amine or outer side, 2 acyl side, 3 side chain; linkers in the order of their positions; H or OH if unused. Non-standard residues stand in square brackets, D forms with d. Residues, ends and D or L forms follow the SMILES beside them. *: point of attachment. Exatecan = CC[C@@]1(O)C(=O)OCc2c1cc1n(c2=O)Cc2c-1nc1cc(F)c(C)c3c1c2[C@@H](N*)CC3; Hexanoyl(6-maleimido) = O=C1C=CC(=O)N1CCCCCC(=O)*; NHCH2OCH2CO = O=C(COCN[*:1])[*:2]

Tested on: human colon cancer SW620 cells
Assay: In vitro killing of human colon cancer SW620 cells (CellTiter-Glo)
Format: cell-based
Conditions: FIG. 2B; 2-fold dilutions from 400 nM, 9 concentrations; culturing 4 days and 6 days
Procedure: Human colon cancer SW620 cells in the logarithmic growth phase were digested with pancreatin, and subsequently resuspended in a corresponding culture medium, with the density adjusted to be 2×10^4 cells/mL. The cells were seeded into a 96-well microplate at 100 μL/well, allowing for a density of 2×10^3 cells/well, and 200 μL of the culture medium was added to each of the rest wells. After culturing for 48 h at 37° C., 5% CO2, the supernatant was pipetted from the cell culture plate. The linker-drugs (04-Dxd, 07-Dxd, 08-Dxd, and 09-Dxd), HER3 ADCs (HER3-ADC04, HER3-ADC07, HER3-ADC08, and HER3-ADC09), and a monoclonal antibody control were diluted in a 2-fold gradient with the culture medium, starting from the initial concentration of 400 nM, to obtain a total of 9 concentration gradients. The diluted samples were added at 100 μL/well. After further culturing for 4 days and 6 days, color development was carried out. The cell plate was taken out and equilibrated for 15-20 min at room temperature, and subsequently 100 μL of CellTiter-Glo® Luminescent Cell Viability assay buffer (purchased from Promega) was added. The plate was shaken for 2 min on a shaker at 200 rpm, kept for 18 min in the dark, and read using an M5 microplate reader.
followed by plotting through four-parameter fitting, with the logarithm of the concentration as the abscissa and the killing rate as the ordinate.

Structure (SMILES) | in vitro killing effect of linker-Dxd drugs on SW620 cells
CC[C@@]1(O)C(=O)OCc2c1cc1n(c2=O)Cc2c-1nc1cc(F)c(C)c3c1c2[C@@H](NC(=O)COCNC(=O)CNC(=O)[C@H](Cc1ccccc1)NC(=O)CNC(=O)[C@H](CO)NC(=O)[C@H](CO)NC(=O)[C@H](C)NC(=O)[C@@H](NC(=O)CCCCCN1C(=O)C=CC1=O)C(C)C)CC3 [09-Dxd] ({Hexanoyl(6-maleimido)}-VASSGFG[NHCH2OCH2CO]-Exatecan) | significantly better killing effect than 04-Dxd
CC[C@@]1(O)C(=O)OCc2c1cc1n(c2=O)Cc2c-1nc1cc(F)c(C)c3c1c2[C@@H](NC(=O)COCNC(=O)CNC(=O)[C@H](Cc1ccccc1)NC(=O)CNC(=O)CNC(=O)CCCCCN1C(=O)C=CC1=O)CC3 [04-Dxd, reference compound] ({Hexanoyl(6-maleimido)}-GGFG[NHCH2OCH2CO]-Exatecan) | killing effect
CC[C@@]1(O)C(=O)OCc2c1cc1n(c2=O)Cc2c-1nc1cc(F)c(C)c3c1c2[C@@H](NC(=O)COCNC(=O)CNC(=O)[C@H](Cc1ccccc1)NC(=O)CNC(=O)[C@H](CO)NC(=O)[C@H](C)NC(=O)[C@@H](NC(=O)CCCCCN1C(=O)C=CC1=O)C(C)C)CC3 [08-Dxd] ({Hexanoyl(6-maleimido)}-VASGFG[NHCH2OCH2CO]-Exatecan) | significantly better killing effect than 04-Dxd
CC[C@@]1(O)C(=O)OCc2c1cc1n(c2=O)Cc2c-1nc1cc(F)c(C)c3c1c2[C@@H](NC(=O)COCNC(=O)CNC(=O)[C@H](Cc1ccccc1)NC(=O)CNC(=O)[C@H](C)NC(=O)[C@@H](NC(=O)CCCCCN1C(=O)C=CC1=O)C(C)C)CC3 [07-Dxd] ({Hexanoyl(6-maleimido)}-VAGFG[NHCH2OCH2CO]-Exatecan) | significantly better killing effect than 04-Dxd
